Laboratory results as given in patent US11559575B2, “Multi-epitopic peptide compounds and vaccines against leishmaniasis” (INSTITUT DE RECHERCHE POUR LE DEVELOPPEMENT, priority 2018, dated 2023).
Entries after “also recorded” stand apart in the source; their conditions may differ.

Test system: HLA alleles of class II
Test: Affinity of epitopes for HLA alleles of class II
Assay type: binding, human
Conditions: for Concatenation affinity for the HLA alleles of class II: H2B-II peptides
Description: The multiepitopic peptide compounds (24 to 40-mer), having a high affinity with a maximized number of HLA molecules of class I and of class II, such as the affinities for the alleles HLA of class I and HLA of class II of the epitopes in the peptides of the sequences SEQ ID NO: 22, 23, 65, 66, 69, 73, 77, 96, 97, 137, 138, and 157, 185, have a high immunoprevalent potential corresponding to an optimal vaccine coverage, in particular for the populations concerned. The degree of coverage of the peptide compounds of the invention show a very high added value compared with the peptides of the prior art.

GSDYSHSMIRDLDFS (listed as Leishmania infantum) [SEQ ID NO: 159]
Concatenation affinity for HLA alleles of class II (PSA KC-2.7 peptides, Table 3): HLA-DRB1*01:01, HLA-DRB1*04:05,; also recorded: HLA-DRB1*07:01, HLA-DRB1*09:01,; also recorded: HLA-DRB4*01:01, HLA-DRB5*01:01,; also recorded: HLA-DPA1*02:01/DPB1*14:01

GYFLTDEKT (listed as Leishmania infantum) [SEQ ID NO: 147]
Concatenation affinity for HLA alleles of class II (PSA KC-2.6 core, Table 3): HLA-DRB1*04:01,; also recorded: HLA-DPA1*02:01/; also recorded: DPB1*01:01

GYFLTDEKTSLVYGD (listed as Leishmania infantum) [SEQ ID NO: 142]
Concatenation affinity for HLA alleles of class II (PSA KC-2.6 peptides, Table 3): HLA-DRB1*01:01, HLA-DRB1*03:01,; also recorded: HLA-DRB1*04:01, HLA-DRB1*07:01,; also recorded: HLA-DRB1*11:01, HLA-DRB3*01:01,; also recorded: HLA-DRB3*02:02,; also recorded: HLA-DPA1*02:01/DPB1*14:01,; also recorded: HLA-DPA1*03:01/DPB1*04:02

HLSIVADHM (Leishmania major) [SEQ ID NO: 88]
Concatenation affinity for HLA alleles of class II (LmLRAB-IIA core, Table 2): HLA-DRB1*01:01

HSVVGRHLSIVADHM (Leishmania major) [SEQ ID NO: 82]
Concatenation affinity for HLA alleles of class II (LmLRAB-IIA peptides, Table 2): HLA-DRB1*15:01

HYSEVSAKT (Leishmania major) [SEQ ID NO: 122]
Concatenation affinity for HLA alleles of class II (LmlRAB-IIB core, Table 2): HLA-DRB1*04:01

INAQMSMSH (Leishmania major) [SEQ ID NO: 44]
Affinity HLA alleles of class II (H2B-II core epitopes, Table 1): HLA-DRB1*04:01,; also recorded: HLA-DRB1*04:05,; also recorded: HLA-DRB1*09:01,; also recorded: HLA-DRB1*11:01,; also recorded: HLA-DRB1*15:01,; also recorded: HLA-DRB4*01:01,; also recorded: HLA-DRB5*01:01

INAQMSMSHRTMKIV (Leishmania major) [SEQ ID NO: 41]
Concatenation affinity for the HLA alleles of class II (Table 1): HLA-DRB1*04:01, HLA-DRB1*15:01, HLA-DRB1*05:01,; also recorded: HLA-DRB1*03:01, HLA-DRB1*09:01, HLA-DRB1*11:01,; also recorded: HLA-DRB1*01:01, HLA-DRB4*01:01, HLA-DRB1*07:01,; also recorded: HLA-DRB1*13:02

IRDLDFSNM (listed as Leishmania infantum) [SEQ ID NO: 174]
Concatenation affinity for HLA alleles of class II (PSA KC-2.7 core, Table 3): HLA-DRB1*01:01,; also recorded: HLA-DRB4*01:01

IVTSRKVQE (Leishmania major) [SEQ ID NO: 123]
Concatenation affinity for HLA alleles of class II (LmlRAB-IIB core, Table 2): HLA-DRB1*03:01,; also recorded: HLA-DRB1*08:02,; also recorded: HLA-DRB1*11:01

IVTSRKVQEEVFDLF (Leishmania major) [SEQ ID NO: 105]
Concatenation affinity for HLA alleles of class II (LmlRAB-IIB peptides, Table 2): HLA-DRB1*03:01, HLA-DRB1*11:01,; also recorded: HLA-DPA1*01:03/DPB1*02:01,; also recorded: HLA-DPA1*01/DPB1*04:01,; also recorded: HLA-DPA1*02:01/DPB1*05:01,; also recorded: HLA-DPA1*02:01/HLA-DPB1*14:01

KAINAQMSMSHRTMK (Leishmania major) [SEQ ID NO: 39]
Concatenation affinity for the HLA alleles of class II (Table 1): HLA-DRB1*07:01, HLA-DRB1*04:01, HLA-DRB1*04:05,; also recorded: HLA-DRB1*09:01, HLA-DRB1*11:01, HLA-DRB1*15:01,; also recorded: HLA-DRB5*01:01, HLA-DRB4*01:01, HLA-DRB1*03:01,

KGRLHSVVGRHLSIV (Leishmania major) [SEQ ID NO: 78]
Concatenation affinity for HLA alleles of class II (LmLRAB-IIA peptides, Table 2): HLA-DRB1*07:01,; also recorded: HLA-DRB5*01:01,; also recorded: HLA-DRB1*11:01,; also recorded: HLA-DRB1*15:01,; also recorded: HLA-DRB1*09:01,; also recorded: HLA-DRB4*01:01

KGRSENAIVTSRKVQ (Leishmania major) [SEQ ID NO: 106]
Concatenation affinity for HLA alleles of class II (LmlRAB-IIB peptides, Table 2): HLA-DRB1*01:01, HLA-DRB1*07:01,; also recorded: HLA-DRB1*11:01, HLA-DRB1*12:01,; also recorded: HLA-DRB5*01:01

KPKRSWNVYVGRSLK (Leishmania major) [SEQ ID NO: 25]
Concatenation affinity for the HLA alleles of class II (Table 1): HLA-DRB5*01:01, HLA-DRB1*01:01, HLA-DRB1*07:01,; also recorded: HLA-DRB1*09:01, HLA-DRB1*15:01

KRSWNVYVGRSLKAI (Leishmania major) [SEQ ID NO: 27]
Concatenation affinity for the HLA alleles of class II (Table 1): HLA-DRB1*01:01, HLA-DRB1*03:01, HLA-DRB1*04:01,; also recorded: HLA-DRB1*11:01, HLA-DRB1*13:02, HLA-DRB1*07:01,; also recorded: HLA-DRB1*09:01, HLA-DRB1*15:01, HLA-DRB5*01:01,; also recorded: HLA-DPA1*02:01/DPB1*01:01

LFTDVHYSE (Leishmania major) [SEQ ID NO: 124]
Concatenation affinity for HLA alleles of class II (LmlRAB-IIB core, Table 2): HLA-DRB1*03:01,; also recorded: HLA-DRB3*01:01,; also recorded: DPB1*04:01,; also recorded: HLA-DPA1*02:01/; also recorded: HLA-DPA1*03:01/; also recorded: DPB1*04:02

LFTDVHYSEVSAKTK (Leishmania major) [SEQ ID NO: 108]
Concatenation affinity for HLA alleles of class II (LmlRAB-IIB peptides, Table 2): HLA-DRB1*01:01, HLA-DRB1*04:01,; also recorded: HLA-DRB1*07:01, HLA-DRB1*09:01,; also recorded: HLA-DRB5*01:01, HLA-DPA1*01:03/DPB1*02:01,; also recorded: HLA-DPA1*01/DPB1*04:01,; also recorded: HLA-DPA1*02:01/HLA-DPB1*14:01

LHSVVGRHL (Leishmania major) [SEQ ID NO: 90]
Concatenation affinity for HLA alleles of class II (LmLRAB-IIA core, Table 2): HLA-DRB1*11:01; also recorded: HLA-DRB1*15:01; also recorded: HLA-DRB4*01:01; also recorded: HLA-DRB5*01:01; also recorded: HLA-DRB1*07:01; also recorded: HLA-DRB1*09:01

LHSVVGRHLSIVADH (Leishmania major) [SEQ ID NO: 81]
Concatenation affinity for HLA alleles of class II (LmLRAB-IIA peptides, Table 2): HLA-DRB1*07:01,; also recorded: HLA-DRB1*15:01,; also recorded: HLA-DRB5*01:01,; also recorded: HLA-DRB1*11:01,; also recorded: HLA-DRB1*09:01,
